Measured values: patent US5837729A, “Methods for treating and preventing HIV infection using acetaminophen and derivatives thereof” (priority 1996, dated 1998)
≈ marks a conversion by molar mass, not a printed value. Where “and” joins values, the source holds several entries; their conditions need not be identical. Identical values can stand only once. Entries after “also recorded” stand apart in the source; their conditions may differ. Like-named read-outs stand apart in the source and are kept apart here.

Legend:
human spermatozoa = conditions: in vitro with human spermatozoa and in animal studies; cited from earlier work
MT-4 T lymphocytes [1] = assay: in vitro
Text: (§1) The % values on the right axis were positioned in a fashion that allows estimation of inhibitory effect of the test drug as a function of acetaminophen concentration plotted on the horizontal axis.
(§2) The % values on the right axis were positioned in a fashion that allows estimation of inhibitory effect of the test drug as a function of AGB concentration plotted on the horizontal axis.
(§3) The % values on the right axis were positioned in a fashion that allows estimation of the inhibitory effect of test drug as a function of EGB concentration plotted on the horizontal axis.
(§4) The toxicity of compounds was tested as follows. MT-4 lymphocytes were grown in the presence or absence of log10 dilutions of test compounds for two days. The cells were then exposed for 4 hours to the preparation of XTT tetrasolium salt (Sigma, St Louis, Mo.) containing phenazine methosulfate (Aldrich, Milwaukee, Wis.). The viability of drug-exposed cells was determined based on activity of mitochondrial […] of MT-4 converting XTT into color-dense formazan. Optical density was then determined in a plate reader at […] with reference filter at […] and compared to absorbance values of the control cells cultured without drugs. XTT test was also confirmed by trypan blue exclusion test based on the principle that nuclei of dead cells are stained blue.
(§5) The serial ten-fold dilutions of AGB, virus, and cells were left without washing in the culture until tested for HIV production 2 days later. Topical contraceptive agents nonoxynol-9 and gramicidin were used as controls.
(§6) The serial ten-fold dilutions of EGB, virus, and cells were left without washing in the culture until tested for HIV production 2 days later. Topical contraceptive agents nonoxynol-9 and gramicidin were used as controls.

acrosin = conditions: correlated with contraceptive effect; cited from earlier work
[2] = cited from earlier work; for potency as experimental vaginal contraceptive, fold more potent than nonoxynol-9: versus nonoxynol-9
HIV [3] = assay: HIV infection of MT-4 T lymphocytes, p24 ELISA of culture supernatant on day 2; assay type: cell-based; conditions: for IC100 / IC50: Human immunodeficiency virus 1, T-lymphocyte; for IC100: 48 h; for IC50 / anti-HIV activity (in words): MT-4, p24
Procedure: as §2, §3
Indicator MT-4 T lymphocytes (10^5 cells/ml) were plated in triplicates in 96-well culture plates in the presence of serial 10-fold molar dilutions of test compound. Each culture well contained 180 μl of RPMI 1640 culture medium with 10% FBS, L-glutamine, penicillin and streptomycin. Immediately thereafter MT-4 lymphocytes were exposed to 20 μl of viral inoculum corresponding to 100 infectious units per lymphocyte as determined by limiting dilution assay. Two days later--the minimal time period corresponding to full replication cycle of HIV--the culture supernatants were collected and dose-response to drugs was quantitated by measuring the levels of cell-free p24 antigen. The amount of released virus was calculated by comparing the optical density of experimental values from treated wells to commercial p24 standards (Coulter, Hialeah, Fla.).
as §5, §6

[4] = cited from earlier work
in vitro = conditions: human, mt-4 cells
Text: as §1, §2, §3, §4, §5, §6

MT-4 T lymphocytes [5] = assay type: cell-based
Procedure: The toxicity of compounds was tested as follows.

HIV [6] = conditions: cited from earlier work
[7] = Table 1, MT-4, 2 days, read-out: IC100 (approximate order of anti-HIV concentration)
[8] = p24 ELISA, MT-4 supernatant, day 2, read-out: Complete inhibition of HIV replication, concentration
[9] = background, earlier work of inventor

CC(=O)Nc1ccc(OC(=O)c2ccc(NC(=N)N)cc2)cc1 [AGB, 4'-acetamidophenyl 4-guanidinobenzoate]
optimal concentration required to inhibit both acrosome reaction and sperm motility (human spermatozoa): 100 µg/mL | CC100 (cytotoxicity) (MT-4 T lymphocytes [1]; human, 2880 min): 10000 µg | acrosin activity (in words) (acrosin): inhibitory action on acrosin activity | toxicity and irritation versus nonoxynol-9 (in words) [2]: far less toxic and irritating | potency as experimental vaginal contraceptive, fold more potent than nonoxynol-9 [2]: up to 100 fold | antiviral potency relative to nonoxynol-9, times less potent (HIV [3]): 10 times | IC100 (HIV [3]; [7]): 100 µg/mL | IC100 (HIV [3]; [8]): 100 µg/mL | IC50 (HIV [3]; read-out: anti-HIV activity in vitro, IC50): 14 µg/mL (≈ 44.8 µM) | SI, selectivity index, ratio between CC100 and IC100 values (HIV [3]; Table 1, CC100/IC100): 100

CC(=O)Nc1ccc(O)cc1 [Acetaminophen, acetaminophen]
anti-inflammatory activity (in words) ([4]; human, in vivo): no anti-inflammatory activity | toxicity / hepatotoxicity (in words) ([4]; overdose or consumption with alcohol): can cause hepatotoxicity | selectivity ratio (in vitro): ≤ 75 | toxicity at tested concentrations (in words) (MT-4 T lymphocytes [1]): has not shown any toxicity at all tested concentrations | toxic dose-effect by XTT formazan OD (in words) (MT-4 T lymphocytes [1]; up to highest tested dose containing 0.5% of ethanol): no observable toxic dose-effect | IC100 (HIV [3]; [7]): 150 µg/mL | IC100 (HIV [3]; [8]): 150 µg/mL and 1000 µM | IC50 (HIV [3]; read-out: inhibitory concentration (IC50), 50% inhibition of de novo HIV infection): 21 µg/mL (≈ 139 µM) | anti-HIV activity (in words) (HIV [3]): antivirally active

CCOC(=O)c1ccc(OC(=O)c2ccc(NC(=N)N)cc2)cc1 [EGB, 4'-carboethoxyphenyl 4-guanidinobenzoate]
CC100 (cytotoxicity) (MT-4 T lymphocytes [1]; human, 2880 min): 100 µg | acrosin activity (in words) (acrosin): inhibitory action on acrosin activity | toxicity and irritation versus nonoxynol-9 (in words) [2]: far less toxic and irritating | potency as experimental vaginal contraceptive, fold more potent than nonoxynol-9 [2]: up to 100 fold | SI, selectivity index, ratio between CC100 and IC100 values (HIV [3]): 1 | IC100 (HIV [3]; [7]): 100 µg/mL | anti-HIV activity (in words) (HIV [3]): antiviral activity was not specific and due to the death of host lymphocytes; also recorded: no effect on HIV infection at doses that were not toxic; also recorded: has not shown specific anti-HIV activity | viability of MT-4 lymphocytes by trypan blue exclusion (in words) (MT-4 T lymphocytes [5]): death of MT-4 lymphocytes

CC(C)C[C@H](NC(=O)[C@@H](O)[C@H](N)Cc1ccccc1)C(=O)O [bestatin]
anti-HIV effect / inhibition of HIV replication (in words) (HIV [6]; [9]): anti-HIV effect

CN/C(=N/CCSCc1nc[nH]c1C)NC#N [cimetidine]
anti-HIV effect / inhibition of HIV replication (in words) (HIV [6]): able to inhibit HIV replication without producing significant cytotoxicity

C[C@@H]1C[C@H]2[C@@H]3CCC4=CC(=O)C=C[C@]4(C)[C@@]3(F)[C@@H](O)C[C@]2(C)[C@@]1(O)C(=O)CO [dexamethasone]
anti-HIV effect / inhibition of HIV replication (in words) (HIV [6]; [9]): anti-HIV effect

COc1ccc2c(c1)c(CC(=O)O)c(C)n2C(=O)c1ccc(Cl)cc1 [indomethacin]
relative anti-HIV potency (in words) (HIV [6]; indomethacin versus aspirin): more potent than aspirin

c1ccc([C@H]2CN3CCSC3=N2)cc1 [levamisole]
anti-HIV effect / inhibition of HIV replication (in words) (HIV [6]): anti-HIV effect

CC(=O)[C@H]1CC[C@H]2[C@@H]3CCC4=CC(=O)CC[C@]4(C)[C@H]3CC[C@]12C [progesterone]
anti-HIV effect / inhibition of HIV replication (in words) (HIV [6]; [9]): anti-HIV effect

CC(=O)CC(c1ccccc1)c1c(O)c2ccccc2oc1=O (stereo not drawn) [warfarin]
anti-HIV effect / inhibition of HIV replication (in words) (HIV [6]; [9]): anti-HIV effect

estrogen
anti-HIV effect / inhibition of HIV replication (in words) (HIV [6]; [9]): anti-HIV effect

gramicidin
CC100 (cytotoxicity) (MT-4 T lymphocytes [1]; Table 1, MT-4, 2 days): 10 µg | toxicity relative to AGB (in words) (MT-4 T lymphocytes [1]; dose compared with AGB): toxic at doses that are a thousand-fold lower than AGB | IC100 (approximate order of anti-HIV concentration) (HIV [3]; Table 1, MT-4, 2 days): 10 ng | anti-HIV effect / inhibition of HIV replication (in words) (HIV [6]; [9]): able to inhibit HIV replication without producing significant cytotoxicity

nonoxynol-9
local toxicity (in words) ([4]; spermicidal agent, effective concentration): local toxicity of this agent is incompatible with its antiviral activity when used at an effective concentration | CC100 (cytotoxicity) (MT-4 T lymphocytes [1]; Table 1, MT-4, 2 days): 10 µg | IC100 (approximate order of anti-HIV concentration) (HIV [3]; Table 1, MT-4, 2 days): 10000 ng
